Assay results reported in patent US20070128217A1 (priority 2003, published 2007).

Legend:
[1] = test system: antibodies in sera from SARS patients (sera 1a, 1b, 2, 6, 37, 62, London, SARS-yellow, SARS-green); type: binding, human; set-up: Binding of serum 6 to linear peptides of protein X1 of SARS-CoV Urbani / Binding of serum 37 to linear peptides of protein X1 of SARS-CoV Urbani / Binding of serum 6 to looped/cyclic peptide (PEPSCAN-ELISA) / Binding of serum 37 to looped/cyclic peptide (PEPSCAN-ELISA) / Binding of serum 37 to looped/cyclic peptides of protein X1 of SARS-CoV Urbani / Binding of serum 6 to linear peptides of protein X2 / Binding of serum 37 to linear peptides of protein X2 / Binding of serum 37 to looped/cyclic peptides of protein X2 of SARS-CoV Urbani / Binding of serum 6 to linear peptides of protein M of SARS-CoV Urbani / Binding of serum 37 to linear peptides of protein M of SARS-CoV Urbani / Binding of serum 6 to looped/cyclic peptides of protein M of SARS-CoV Urbani / Binding of serum 37 to looped/cyclic peptides of protein M of SARS-CoV Urbani / Binding of serum 6 to linear peptides of protein X3 of SARS-CoV Urbani / Binding of serum 37 to linear peptides of protein X3 of SARS-CoV Urbani / Binding of serum 37 to looped/cyclic peptides of protein X3 of SARS-CoV Urbani / Binding of serum 6 to linear peptides of protein X4 of SARS-CoV Urbani / Binding of serum 37 to linear peptides of protein X4 of SARS-CoV Urbani / Binding of serum 37 to looped/cyclic peptides of protein X4 of SARS-CoV Urbani / Binding of serum 6 to linear peptides of protein X5 of SARS-CoV Urbani / Binding of serum 37 to linear peptides of protein X5 of SARS-CoV Urbani / Binding of serum 37 to looped/cyclic peptides of protein X5 of SARS-CoV Urbani / Binding of serum 6 to linear peptides of protein N of SARS-CoV Urbani / Binding of serum 37 to linear peptides of protein N of SARS-CoV Urbani / Binding of serum 6 to linear peptide (PEPSCAN-ELISA) / Binding of serum 1a to looped/cyclic peptides of protein N of SARS-CoV Urbani / Binding of serum 1b to looped/cyclic peptides of protein N of SARS-CoV Urbani / Binding of serum 2 to looped/cyclic peptides of protein N of SARS-CoV Urbani / Binding of serum 6 to looped/cyclic peptides of protein N of SARS-CoV Urbani / Binding of serum 37 to looped/cyclic peptides of protein N of SARS-CoV Urbani / Binding of serum 62 to looped/cyclic peptides of protein N of SARS-CoV Urbani / Binding of serum London to looped/cyclic peptides of protein N of SARS-CoV Urbani / Binding of serum SARS-green to looped/cyclic peptides of protein N of SARS-CoV Urbani: unit not given here
[2] = test system: control sera (pooled serum of ten healthy LUMC hospital workers; commercial negative donor pooled serum from the Dutch bloodbank); type: binding, human; set-up: Binding of Control serum LUMC to linear peptides / Binding of Control serum Blood-bank to linear peptides / Binding of Control serum LUMC to looped peptides / Binding of Control Serum Blood-Bank to Looped peptides / Binding of Control serum LUMC to linear peptides of the protein M of SARS-CoV Urbani / Binding of Control serum Blood-bank to linear peptides of the protein M of SARS-CoV Urbani / Binding of Control serum LUMC to looped peptides of the protein M of SARS-CoV Urbani / Binding of Control Serum Blood-Bank to Looped peptides of the protein M of SARS-CoV Urbani: unit not given here
[3] = test system: rabbit serum obtained by immunizing a rabbit with the SARS-CoV strain Frankfurt 1; type: binding; set-up: Binding of a rabbit serum to linear peptides / Binding of a rabbit serum to looped peptides / Rabbit serum linear peptides / Rabbit serum looped peptides / Binding of a rabbit serum to linear peptides of protein N of SARS-CoV Urbani (Rabbit serum linear peptides) / Binding of a rabbit serum to looped/cyclic peptides of protein N of SARS-CoV Urbani (Rabbit serum looped peptides): unit not given here

## QIQLSLLKVTAFQHQ
[1]
  Binding of serum 1a to linear peptides of protein X2: 0.5
  Binding of serum 1a to looped/cyclic peptides of protein X2 of SARS-CoV Urbani: 0.6
  Binding of serum 1b to linear peptides of protein X2: 0.4
  Binding of serum 1b to looped/cyclic peptides of protein X2 of SARS-CoV Urbani: 0.5
  Binding of serum 2 to linear peptides of protein X2: 0.4
  Binding of serum 2 to looped/cyclic peptides of protein X2 of SARS-CoV Urbani: 0.4
  Binding of serum 6 to linear peptides of protein X2: 0.4
  Binding of serum 6 to looped/cyclic peptides of protein X2 of SARS-CoV Urbani: 0.6
  Binding of serum 37 to linear peptides of protein X2: 0.6
  Binding of serum 37 to looped/cyclic peptides of protein X2 of SARS-CoV Urbani: 0.4
  Binding of serum 62 to linear peptides of protein X2: 0.3
  Binding of serum 62 to looped/cyclic peptides of protein X2 of SARS-CoV Urbani: 0.6
  Binding of serum London to linear peptides of protein X2: 0.3
  Binding of serum London to looped/cyclic peptides of protein X2 of SARS-CoV Urbani: 0.7
  Binding of serum SARS-green to linear peptides of protein X2: 0.2
  Binding of serum SARS-green to looped/cyclic peptides of protein X2 of SARS-CoV Urbani: 0.4
  Binding of serum SARS-yellow to linear peptides of protein X2: 0.4
  Binding of serum SARS-yellow to looped/cyclic peptides of protein X2 of SARS-CoV Urbani: 0.6
[2]
  Binding of Control Serum Blood-Bank to Looped peptides: 0.6
  Binding of Control serum Blood-bank to linear peptides: 0.4
  Binding of Control serum LUMC to linear peptides: 0.7
  Binding of Control serum LUMC to looped peptides: 0.6
[3]
  Binding of a rabbit serum to linear peptides: 0.6
  Binding of a rabbit serum to looped peptides: 0.5

## QITTDTGIENATFFI
[1]
  Binding of serum 1a to linear peptides of protein X1 of SARS-CoV Urbani: 0.7
  Binding of serum 1a to looped/cyclic peptides of protein X1 of SARS-CoV Urbani: 0.7
  Binding of serum 1b to linear peptides of protein X1 of SARS-CoV Urbani: 0.6
  Binding of serum 1b to looped/cyclic peptides of protein X1 of SARS-CoV Urbani: 0.7
  Binding of serum 2 to linear peptides of protein X1 of SARS-CoV Urbani: 0.4
  Binding of serum 2 to looped/cyclic peptides of protein X1 of SARS-CoV Urbani: 0.6
  Binding of serum 6 to linear peptides of protein X1 of SARS-CoV Urbani: 0.4
  Binding of serum 6 to looped/cyclic peptides of protein X1 of SARS-CoV Urbani: 0.5
  Binding of serum 37 to linear peptides of protein X1 of SARS-CoV Urbani: 0.6
  Binding of serum 37 to looped/cyclic peptides of protein X1 of SARS-CoV Urbani: 1.0
  Binding of serum 62 to linear peptides of protein X1 of SARS-CoV Urbani: 0.4
  Binding of serum 62 to looped/cyclic peptides of protein X1 of SARS-CoV Urbani: 0.9
  Binding of serum London to linear peptides of protein X1 of SARS-CoV Urbani: 0.3
  Binding of serum London to looped/cyclic peptides of protein X1 of SARS-CoV Urbani: 0.3
  Binding of serum SARS-green to linear peptides of protein X1 of SARS-CoV Urbani: 0.3
  Binding of serum SARS-green to looped/cyclic peptides of protein X1 of SARS-CoV Urbani: 0.5
  Binding of serum SARS-yellow to linear peptides of protein X1 of SARS-CoV Urbani: 0.3
  Binding of serum SARS-yellow to looped/cyclic peptides of protein X1 of SARS-CoV Urbani: 0.5
[2]
  Binding of Control Serum Blood-Bank to Looped peptides: 0.5
  Binding of Control serum Blood-bank to linear peptides: 0.5
  Binding of Control serum LUMC to linear peptides: 0.6
  Binding of Control serum LUMC to looped peptides: 0.8
[3]
  Binding of a rabbit serum to linear peptides: 0.1
  Binding of a rabbit serum to looped peptides: 1.5
